{"source": "patent US12691176B2", "about": "“Ionic nanovesicle suspension and biocide prepared therefrom” (priority 2015, dated 2026)", "origin": "cited, not measured here", "key": {"[1]": {"test_system": "bacteria", "details": "very low concentrations"}, "[2]": {"test_system": "fungi"}}}
{"substance": "Polyaminopropyl biguanide [PAPB]", "values": [{"measurement": "bactericidal concentration", "setting": "[1]", "value": 10, "unit": "mg/L"}, {"measurement": "fungicidal activity", "setting": "[2]", "value": "fungicidal"}]}
